{"source": "patent EP0510151B1", "about": "“IMPROVED ANTI-PLAQUE COMPOSITIONS COMPRISING A COMBINATION OF MORPHOLINOAMINO ALCOHOL AND ANTI-MICROBIAL AGENT” (Pharmacia AB, priority 1990, dated 1992)", "key": {"Streptococcus mutans": {"test_system": "Streptococcus mutans", "assay": "Minimal inhibitory concentration (MIC) by broth dilution and checkerboard titration of combinations", "assay_type": "cell-based", "procedure": "(§1) The minimal inhibitory concentration (MIC) of the test compound is the minimum concentration of compound required to inhibit growth of the test microorganism. The MIC is determined by serially diluting the test solution through tubes of sterile broth. The tubes are inoculated and incubated at 37°C for 48 hours. At the end of the incubation time, growth is checked macroscopically. The lowest concentration of test compound to inhibit growth is the MIC. This technique is used to assess antimicrobial activity of combinations. The checkerboard is the pattern found by multiple combinations of two agents in concentrations equal to, above and below their minimal inhibitory concentration for the microorganism tested against. The checkerboard consists of columns which contain the same amount of one agent which is diluted along the x-axis and rows which each contain the same amount of the second agent diluted along the y-axis. Thus each tube is a unique combination of the two agents. […] A method for illustrating the effect of the combination of the two agents is obtained by plotting the MIC's of each agent alone and the MIC's for these agents in combination. Antimicrobial synergy is indicated if the MIC's for the agents in combination are lower than the MIC's for the agents alone."}, "[1]": {"test_system": "Bacteroides melaninogenicus", "assay": "Minimal inhibitory concentration (MIC) by broth dilution and checkerboard titration of combinations", "assay_type": "cell-based", "procedure": "as §1"}, "[2]": {"conditions": "S. mutans, agent alone (other agent 0), Table VII"}, "[3]": {"conditions": "B. melaninogenicus, agent alone (other agent 0), Table VII"}, "[4]": {"conditions": "S. mutans, agent alone (other agent 0), Table X"}, "[5]": {"conditions": "B. melaninogenicus, agent alone (other agent 0), Table X"}, "[6]": {"conditions": "S. mutans, agent alone (other agent 0), Table IX"}, "[7]": {"conditions": "B. melaninogenicus, agent alone (other agent 0), Table IX"}, "[8]": {"conditions": "S. mutans, agent alone (other agent 0), Table XI, comparative"}, "[9]": {"conditions": "S. mutans, agent alone (other agent 0), second table of Example XI, comparative"}, "[10]": {"conditions": "B. melaninogenicus, agent alone (other agent 0), Table XI, comparative"}, "[11]": {"conditions": "B. melaninogenicus, agent alone (other agent 0), second table of Example XI, comparative"}}}
{"smiles": "CCCCCCCCCCCCOCC(O)CO", "note": "(racemic) [1-0-dodecyl-rac-glycerol, reference compound]", "values": [{"measurement": "Minimum Inhibitory Concentration", "setting": "Streptococcus mutans; [2]", "value": 10, "unit": "miligrams/liter"}, {"measurement": "Minimum Inhibitory Concentration", "setting": "Streptococcus mutans; S. mutans, in combination with 4 miligrams/liter morpholinoamino alcohol HCl", "value": 6, "unit": "miligrams/liter"}, {"measurement": "Minimum Inhibitory Concentration", "setting": "Streptococcus mutans; S. mutans, in combination with 100 miligrams/liter morpholinoamino alcohol HCl", "value": 2, "unit": "miligrams/liter"}, {"measurement": "Minimum Inhibitory Concentration", "setting": "[1]; [3]", "value": 10, "unit": "miligrams/liter"}, {"measurement": "Minimum Inhibitory Concentration", "setting": "[1]; B. melaninogenicus, in combination with 4 miligrams/liter morpholinoamino alcohol HCl", "value": 6, "unit": "miligrams/liter"}, {"measurement": "Minimum Inhibitory Concentration", "setting": "[1]; B. melaninogenicus, in combination with 20 miligrams/liter morpholinoamino alcohol HCl", "value": 2, "unit": "miligrams/liter"}]}
{"smiles": "CCCCC(CC)CN1CN(CC(CC)CCCC)CC(C)(N)C1", "note": "(stereo not drawn) [hexitidine, hexetidine, reference compound]", "values": [{"measurement": "Minimum Inhibitory Concentration", "setting": "Streptococcus mutans; [4]", "value": 1.0, "unit": "milligrams/liter"}, {"measurement": "Minimum Inhibitory Concentration", "setting": "Streptococcus mutans; S. mutans, in combination with 50 milligrams/liter morpholinoamino alcohol HCl, Table X", "value": 0.25, "unit": "milligrams/liter"}, {"measurement": "Minimum Inhibitory Concentration", "setting": "Streptococcus mutans; S. mutans, in combination with 100 milligrams/liter morpholinoamino alcohol HCl, Table X", "value": 0.25, "unit": "milligrams/liter"}, {"measurement": "Minimum Inhibitory Concentration", "setting": "[1]; [5]", "value": 1.0, "unit": "milligrams/liter"}, {"measurement": "Minimum Inhibitory Concentration", "setting": "[1]; B. melaninogenicus, in combination with 50 milligrams/liter morpholinoamino alcohol HCl, Table X", "value": 0.25, "unit": "milligrams/liter"}, {"measurement": "Minimum Inhibitory Concentration", "setting": "[1]; B. melaninogenicus, in combination with 100 milligrams/liter morpholinoamino alcohol HCl, Table X", "value": 0.125, "unit": "milligrams/liter"}]}
{"smiles": "CCCCCCCCCCCC[N+](C)(C)CCOc1ccccc1", "note": "[domiphen bromide, reference compound]", "values": [{"measurement": "Minimum Inhibitory Concentration", "setting": "Streptococcus mutans; [6]", "value": 1.0, "unit": "milligrams/liter"}, {"measurement": "Minimum Inhibitory Concentration", "setting": "Streptococcus mutans; S. mutans, in combination with 50 milligrams/liter morpholinoamino alcohol HCl, Table IX", "value": 1.0, "unit": "milligrams/liter"}, {"measurement": "Minimum Inhibitory Concentration", "setting": "Streptococcus mutans; S. mutans, in combination with 100 milligrams/liter morpholinoamino alcohol HCl, Table IX", "value": 0.5, "unit": "milligrams/liter"}, {"measurement": "Minimum Inhibitory Concentration", "setting": "[1]; [7]", "value": 50, "unit": "milligrams/liter"}, {"measurement": "Minimum Inhibitory Concentration", "setting": "[1]; B. melaninogenicus, in combination with 50 milligrams/liter morpholinoamino alcohol HCl, Table IX", "value": 12.5, "unit": "milligrams/liter"}, {"measurement": "Minimum Inhibitory Concentration", "setting": "[1]; B. melaninogenicus, in combination with 100 milligrams/liter morpholinoamino alcohol HCl, Table IX", "value": 6.25, "unit": "milligrams/liter"}]}
{"smiles": "CCCC(CCC)CCCC1COCCN1CCO.Cl", "note": "(stereo not drawn) [3-(4-propylheptyl)-4-(2-hydroxyethyl) morpholine hydrochloride]", "values": [{"measurement": "Minimum Inhibitory Concentration", "setting": "Streptococcus mutans; S. mutans (ATCC 2517S), agent alone (other agent 0), Table VIII", "value": 200, "unit": "milligrams/liter"}, {"measurement": "Minimum Inhibitory Concentration", "setting": "Streptococcus mutans; [6]", "value": 200, "unit": "milligrams/liter"}, {"measurement": "Minimum Inhibitory Concentration", "setting": "Streptococcus mutans; [2]", "value": 200, "unit": "miligrams/liter"}, {"measurement": "Minimum Inhibitory Concentration", "setting": "Streptococcus mutans; [4]", "value": 200, "unit": "milligrams/liter"}, {"measurement": "Minimum Inhibitory Concentration", "setting": "Streptococcus mutans; [8]", "value": 200, "unit": "milligrams/liter"}, {"measurement": "Minimum Inhibitory Concentration", "setting": "Streptococcus mutans; [9]", "value": 200, "unit": "milligrams/liter"}, {"measurement": "Minimum Inhibitory Concentration", "setting": "Streptococcus mutans; S. mutans, in combination with 0.25 milligrams/liter hexitidine (row with 50 morpholinoamino alcohol HCl)", "value": 50, "unit": "milligrams/liter"}, {"measurement": "Minimum Inhibitory Concentration", "setting": "Streptococcus mutans; S. mutans, in combination with 0.25 milligrams/liter hexitidine (row with 100 morpholinoamino alcohol HCl)", "value": 100, "unit": "milligrams/liter"}, {"measurement": "Minimum Inhibitory Concentration", "setting": "Streptococcus mutans; S. mutans, in combination with 0.5 milligrams/liter domiphen bromide", "value": 100, "unit": "milligrams/liter"}, {"measurement": "Minimum Inhibitory Concentration", "setting": "Streptococcus mutans; S. mutans, in combination with 1.0 milligrams/liter domiphen bromide", "value": 50, "unit": "milligrams/liter"}, {"measurement": "Minimum Inhibitory Concentration", "setting": "Streptococcus mutans; S. mutans, in combination with 2 miligrams/liter 1-0-dodecyl-rac-glycerol", "value": 100, "unit": "miligrams/liter"}, {"measurement": "Minimum Inhibitory Concentration", "setting": "Streptococcus mutans; S. mutans, in combination with 6 miligrams/liter 1-0-dodecyl-rac-glycerol", "value": 4, "unit": "miligrams/liter"}, {"measurement": "Minimum Inhibitory Concentration", "setting": "Streptococcus mutans; S. mutans, in combination with 10 milligrams/liter amyl-m-cresol (row with 50 morpholinoamino alcohol HCl)", "value": 50, "unit": "milligrams/liter"}, {"measurement": "Minimum Inhibitory Concentration", "setting": "Streptococcus mutans; S. mutans, in combination with 10 milligrams/liter amyl-m-cresol (row with 100 morpholinoamino alcohol HCl)", "value": 100, "unit": "milligrams/liter"}, {"measurement": "Minimum Inhibitory Concentration", "setting": "Streptococcus mutans; S. mutans, in combination with 50 milligrams/liter 2, 4-dichloro-alcohol (row with 50 morpholinoamino alcohol HCl)", "value": 50, "unit": "milligrams/liter"}, {"measurement": "Minimum Inhibitory Concentration", "setting": "Streptococcus mutans; S. mutans, in combination with 50 milligrams/liter 2, 4-dichloro-alcohol (row with 100 morpholinoamino alcohol HCl)", "value": 100, "unit": "milligrams/liter"}, {"measurement": "Minimum Inhibitory Concentration", "setting": "Streptococcus mutans; S. mutans, in the absence of the dodecyl glycerol", "value": 200, "unit": "milligrams per liter"}, {"measurement": "Minimum Inhibitory Concentration", "setting": "[1]; B. melaninogenicus (J18M2), agent alone (other agent 0), Table VIII", "value": 200, "unit": "milligrams/liter"}, {"measurement": "Minimum Inhibitory Concentration", "setting": "[1]; B. melaninogenicus (J18M2), in combination with 0.003 milligrams/liter cetyl pyridinium chloride", "value": 100, "unit": "milligrams/liter"}, {"measurement": "Minimum Inhibitory Concentration", "setting": "[1]; B. melaninogenicus (J18M2), in combination with 0.006 milligrams/liter cetyl pyridinium chloride", "value": 50, "unit": "milligrams/liter"}, {"measurement": "Minimum Inhibitory Concentration", "setting": "[1]; [7]", "value": 200, "unit": "milligrams/liter"}, {"measurement": "Minimum Inhibitory Concentration", "setting": "[1]; [3]", "value": 200, "unit": "miligrams/liter"}, {"measurement": "Minimum Inhibitory Concentration", "setting": "[1]; [5]", "value": 200, "unit": "milligrams/liter"}, {"measurement": "Minimum Inhibitory Concentration", "setting": "[1]; [10]", "value": 200, "unit": "milligrams/liter"}, {"measurement": "Minimum Inhibitory Concentration", "setting": "[1]; [11]", "value": 200, "unit": "milligrams/liter"}, {"measurement": "Minimum Inhibitory Concentration", "setting": "[1]; B. melaninogenicus, in combination with 0.125 milligrams/liter hexitidine", "value": 100, "unit": "milligrams/liter"}, {"measurement": "Minimum Inhibitory Concentration", "setting": "[1]; B. melaninogenicus, in combination with 0.25 milligrams/liter hexitidine", "value": 50, "unit": "milligrams/liter"}, {"measurement": "Minimum Inhibitory Concentration", "setting": "[1]; B. melaninogenicus, in combination with 2 miligrams/liter 1-0-dodecyl-rac-glycerol", "value": 20, "unit": "miligrams/liter"}, {"measurement": "Minimum Inhibitory Concentration", "setting": "[1]; B. melaninogenicus, in combination with 2.5 milligrams/liter amyl-m-cresol", "value": 100, "unit": "milligrams/liter"}, {"measurement": "Minimum Inhibitory Concentration", "setting": "[1]; B. melaninogenicus, in combination with 6 miligrams/liter 1-0-dodecyl-rac-glycerol", "value": 4, "unit": "miligrams/liter"}, {"measurement": "Minimum Inhibitory Concentration", "setting": "[1]; B. melaninogenicus, in combination with 6.25 milligrams/liter domiphen bromide", "value": 100, "unit": "milligrams/liter"}, {"measurement": "Minimum Inhibitory Concentration", "setting": "[1]; B. melaninogenicus, in combination with 10 milligrams/liter amyl-m-cresol", "value": 50, "unit": "milligrams/liter"}, {"measurement": "Minimum Inhibitory Concentration", "setting": "[1]; B. melaninogenicus, in combination with 12.5 milligrams/liter domiphen bromide", "value": 50, "unit": "milligrams/liter"}, {"measurement": "Minimum Inhibitory Concentration", "setting": "[1]; B. melaninogenicus, in combination with 100 milligrams/liter 2, 4-dichloro-alcohol (row with 50 morpholinoamino alcohol HCl)", "value": 50, "unit": "milligrams/liter"}, {"measurement": "Minimum Inhibitory Concentration", "setting": "[1]; B. melaninogenicus, in combination with 100 milligrams/liter 2, 4-dichloro-alcohol (row with 100 morpholinoamino alcohol HCl)", "value": 100, "unit": "milligrams/liter"}, {"measurement": "Minimum Inhibitory Concentration", "setting": "[1]; B. melaninogenicus, in the absence of the dodecyl glycerol", "value": 200, "unit": "milligrams per liter"}]}
{"smiles": "OCc1ccc(Cl)cc1Cl", "note": "[2,4-dichloro-alcohol, 2,4-dichlorobenzyl alcohol, reference compound]", "values": [{"measurement": "Minimum Inhibitory Concentration", "setting": "Streptococcus mutans; [9]", "value": 50, "unit": "milligrams/liter"}, {"measurement": "Minimum Inhibitory Concentration", "setting": "Streptococcus mutans; S. mutans, in combination with 50 milligrams/liter morpholinoamino alcohol HCl, the 12th table", "value": 50, "unit": "milligrams/liter"}, {"measurement": "Minimum Inhibitory Concentration", "setting": "Streptococcus mutans; S. mutans, in combination with 100 milligrams/liter morpholinoamino alcohol HCl, the 12th table", "value": 50, "unit": "milligrams/liter"}, {"measurement": "Minimum Inhibitory Concentration", "setting": "[1]; [11]", "value": 100, "unit": "milligrams/liter"}, {"measurement": "Minimum Inhibitory Concentration", "setting": "[1]; B. melaninogenicus, in combination with 50 milligrams/liter morpholinoamino alcohol HCl, the 12th table", "value": 100, "unit": "milligrams/liter"}, {"measurement": "Minimum Inhibitory Concentration", "setting": "[1]; B. melaninogenicus, in combination with 100 milligrams/liter morpholinoamino alcohol HCl, the 12th table", "value": 100, "unit": "milligrams/liter"}]}
{"smiles": "CCCCCc1ccc(C)cc1O", "note": "[amyl-m-cresol, reference compound]", "values": [{"measurement": "Minimum Inhibitory Concentration", "setting": "Streptococcus mutans; [8]", "value": 10, "unit": "milligrams/liter"}, {"measurement": "Minimum Inhibitory Concentration", "setting": "Streptococcus mutans; S. mutans, in combination with 50 milligrams/liter morpholinoamino alcohol HCl, Table XI", "value": 10, "unit": "milligrams/liter"}, {"measurement": "Minimum Inhibitory Concentration", "setting": "Streptococcus mutans; S. mutans, in combination with 100 milligrams/liter morpholinoamino alcohol HCl, Table XI", "value": 10, "unit": "milligrams/liter"}, {"measurement": "Minimum Inhibitory Concentration", "setting": "[1]; [10]", "value": 10, "unit": "milligrams/liter"}, {"measurement": "Minimum Inhibitory Concentration", "setting": "[1]; B. melaninogenicus, in combination with 50 milligrams/liter morpholinoamino alcohol HCl, Table XI", "value": 10, "unit": "milligrams/liter"}, {"measurement": "Minimum Inhibitory Concentration", "setting": "[1]; B. melaninogenicus, in combination with 100 milligrams/liter morpholinoamino alcohol HCl, Table XI", "value": 2.5, "unit": "milligrams/liter"}]}
